Results reported in ChEMBL document CHEMBL3886716, “Methods of modulating the activity of the MC5 receptor and treatment of conditions related to this receptor” (2016).

Each compound was assayed against Melanocortin receptor 5 (Homo sapiens, UniProt P33032) (assay: Radioligand Binding Assay: Assessments of compound binding to human MC5R (hMC5R)) by displacement of an 125I-labeled NDP-MSH receptor ligand peptide were performed essentially as described in the data sheets produced by Perkin Elmer to accompany their frozen hMC5R membranes (Perkin Elmer catalog number RBXMC5M400UA). [125I] NDP-MSH: Radiolabeled in House and Purified by HPLC: Na125I (0.5 mCi, 17.4 Ci/mg) was added to 50 μL sodium phosphate (50 mM, pH 7.4) in an eppendorf tube precoated with IODOGEN. After incubation for 10 mins the phosphate buffer containing the iodine was added to NDP-MSH (10 μl at 1 mg/mL) in a separate eppendorf tube. This was incubated for a further 10 mins. The iodinated NDP-MSH was purified by HPLC on a Zorbax SB 300 column using solvent A: 0.05% TFA and solvent B: 90% acetonitrile 0.045% TFA with a linear gradient, 0-67% B over 60 mins. The 125I NDP-MSH eluted at 52 mins after the unlabeled starting material (48 min) and was counted and stored in the freezer. […] Incubation buffer: 25 mM HEPES-KOH (pH 7.0), 1.5 mM CaCl2, 1 mM MgSO4, 0.1 M NaCl, 1 mM 1,10-phenanthroline, and 1 Complete™ protease inhibitor tablet/100 mL (Roche, catalog number 1873580). Perkin Elmer frozen hMC5 membranes: catalog number RBXMC5M400UA, 0.4 mL/vial; 400 microassays/vial, 0.78 mg/mL protein concentration. Vials of frozen membranes were thawed rapidly immediately before use, diluted with binding buffer and vortexed. Resuspended membranes were kept on ice until they were added to the wells of the plate. Assays were performed in 96 well polypropylene plates. […] This was incubated for 1 hr at 37° C.).
Melanocortin receptor 5, sequence (P33032 whole entry): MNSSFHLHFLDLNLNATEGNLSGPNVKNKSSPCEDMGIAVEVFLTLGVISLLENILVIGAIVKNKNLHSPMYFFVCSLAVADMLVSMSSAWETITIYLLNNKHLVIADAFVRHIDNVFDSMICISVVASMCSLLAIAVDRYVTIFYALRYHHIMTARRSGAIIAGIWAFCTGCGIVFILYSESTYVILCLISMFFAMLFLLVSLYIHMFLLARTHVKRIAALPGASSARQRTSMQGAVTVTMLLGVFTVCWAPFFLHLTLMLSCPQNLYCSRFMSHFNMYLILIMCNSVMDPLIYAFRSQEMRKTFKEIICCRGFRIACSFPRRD

`N=C(N)NCCC[C@@H]1N[C@H](CNC(=O)/C=C/c2ccc(Cl)cc2)CCN(CC(c2ccccc2)c2ccccc2)C1=O` and `O=C(/C=C/c1ccc(Cl)cc1)NC[C@@H]1CCN(CC(c2ccccc2)c2ccccc2)C(=O)[C@H](CC2CCCCC2)N1` cannot be ordered by IC50: less than 100 nM for the first, less than 1000 nM for the second.

`N=C(N)NCCC[C@@H]1N[C@H](CNC(=O)c2ccc3cc(O)ccc3c2)CCN(CC(c2ccccc2)c2ccccc2)C1=O` and `N=C(N)NCCC[C@@H]1N[C@H](CNC(=O)c2cccc(Oc3ccccc3)c2)CCN(CC(c2ccccc2)c2ccccc2)C1=O` cannot be ordered by IC50: less than 100 nM for the first, less than 100 nM for the second.

`N=C(N)NCCC[C@@H]1N[C@H](CNC(=O)c2ccc3ccccc3c2)CCN(CCc2ccc(Cl)cc2Cl)C1=O` and `N=C(N)NCCC[C@@H]1N[C@H](CNC(=O)c2ccc3ccccc3c2)CCN(CCc2ccc(Cl)c(Cl)c2)C1=O` cannot be ordered by IC50: less than 1000 nM for the first, less than 10000 nM for the second.

Work on `N=C(N)NCCC[C@@H]1N[C@H](CNC(=O)c2ccc(Oc3ccccc3)cc2)CCN(CC(c2ccccc2)c2ccccc2)C1=O` yielded an IC50 of less than 1000 nM.
